Test systems include NCI/ADR-RES ovarian; SW-620 colon; NCI-H23 lung; HCT-15 colon; M14 melanoma; K-562 leukemia; U251 CNS; OVCAR-4 ovarian; SF-268 CNS; COLO 205 colon; MDA-MB-435; OVCAR-8 ovarian; NCI-H460 lung.
What all share (experiment): NCI-60 cell line screen, 48 h

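Following 48 hours of exposure in 96-well plates, responses at five concentrations were used to interpolate endpoints linearly. TGI: total growth inhibition.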

With `CCCCC1Cc2cc(O)ccc2-c2nc3cc(O)ccc3n21` (configuration not stated) (tested in a mixture with another compound), the TGI was 49.4 µM in the experiment on NCI/ADR-RES ovarian; 39.5 µM with SW-620 colon; 72.5 µM in the experiment with NCI-H23 lung; 25 µM with HCT-15 colon; 28.6 µM in the experiment with M14 melanoma; 41.3 µM in the experiment on K-562 leukemia. Also, the TGI in the experiment on U251 CNS was 27.5 µM; with OVCAR-4 ovarian, 30.8 µM; with SF-268 CNS it was 33.3 µM; with COLO 205 colon, 29.7 µM; with MDA-MB-435, 26.1 µM; in the experiment with OVCAR-8 ovarian, 68.8 µM. Further, the TGI in the experiment on NCI-H460 lung stood at 32.9 µM.
Consider `CC(=O)c1c(N=[N+]=[N-])c2cccc3c2n(c1=O)CCC3`, for which the TGI was 38.2 µM in the experiment on NCI/ADR-RES ovarian; 30.7 µM with SW-620 colon; 45.6 µM with NCI-H23 lung; 47.4 µM in the experiment on HCT-15 colon; 36.3 µM in the experiment on M14 melanoma; above 100 µM in the experiment on K-562 leukemia. For the same compound, the TGI stood at 31.6 µM with U251 CNS; 52.3 µM with OVCAR-4 ovarian; 38.6 µM in the experiment with SF-268 CNS; 44.6 µM with COLO 205 colon; 42.7 µM with MDA-MB-435; 16.1 µM in the experiment on OVCAR-8 ovarian. In addition, the TGI with NCI-H460 lung came out at 35.1 µM.
Regarding `Oc1c(Br)ccc2cccnc12`, the TGI is 6.38 µM in the experiment on NCI/ADR-RES ovarian; above 45.6 µM in the experiment on SW-620 colon; 7.28 µM in the experiment with NCI-H23 lung; above 100 µM in the experiment on HCT-15 colon; above 32.5 µM with M14 melanoma; above 31.4 µM with K-562 leukemia. In addition, the TGI in the experiment on U251 CNS was above 100 µM; in the experiment on OVCAR-4 ovarian, above 92.9 µM; with SF-268 CNS it was above 100 µM; with COLO 205 colon it was above 33.8 µM; with MDA-MB-435, above 100 µM; in the experiment with OVCAR-8 ovarian it was above 100 µM. In the experiment with NCI-H460 lung, this compound gave a TGI of 23.2 µM.
As for `Cc1ccc2c(c1)CC1(Cc3cccc(C)c3C1=O)C2=O` (configuration not stated), the TGI in the experiment with NCI/ADR-RES ovarian, in the experiment with SW-620 colon, with NCI-H23 lung, in the experiment with HCT-15 colon, in the experiment on M14 melanoma and in the experiment on K-562 leukemia was above 100 µM each time. The TGI in the experiment with U251 CNS was above 100 µM; with OVCAR-4 ovarian, above 100 µM; with SF-268 CNS it was above 100 µM; in the experiment on COLO 205 colon, above 100 µM; in the experiment with MDA-MB-435, above 10 µM; in the experiment with OVCAR-8 ovarian, above 100 µM. In the experiment on NCI-H460 lung, this compound yielded a TGI above 100 µM.
Turning to `CC1(C)OP(=O)(O)C=C1Sc1ccc([N+](=O)[O-])cc1[N+](=O)[O-]`, the TGI in the experiment with NCI/ADR-RES ovarian, with SW-620 colon, in the experiment on NCI-H23 lung, in the experiment on HCT-15 colon, in the experiment with M14 melanoma and with K-562 leukemia was above 100 µM in each case. The TGI in the experiment with U251 CNS, in the experiment with OVCAR-4 ovarian, with SF-268 CNS, with COLO 205 colon, in the experiment on MDA-MB-435 and with OVCAR-8 ovarian was above 100 µM each time. The compound also showed a TGI in the experiment on NCI-H460 lung above 100 µM.
As to `C/C=C\C(CC(=O)NCC(=O)c1c[nH]c2ccccc12)CC(=O)OC` (configuration not stated), the TGI with NCI/ADR-RES ovarian, with SW-620 colon, in the experiment on NCI-H23 lung, with HCT-15 colon, in the experiment on M14 melanoma and in the experiment on K-562 leukemia was above 100 µM in each case. Besides, the TGI in the experiment with U251 CNS, in the experiment on OVCAR-4 ovarian, with SF-268 CNS, in the experiment on COLO 205 colon, in the experiment with MDA-MB-435 and with OVCAR-8 ovarian was above 100 µM throughout. Further, the TGI with NCI-H460 lung was above 100 µM.
Turning to `O=C1c2c(Br)sc(Br)c2C(=O)C1(O)O`, the TGI was above 100 µM in the experiment with NCI/ADR-RES ovarian; above 100 µM with SW-620 colon; 99.6 µM in the experiment on NCI-H23 lung; 73.4 µM in the experiment on HCT-15 colon; 33.6 µM with M14 melanoma; 79.8 µM with K-562 leukemia. Also, the TGI in the experiment with U251 CNS was above 100 µM; with OVCAR-4 ovarian, 34.3 µM; in the experiment with SF-268 CNS it was above 100 µM; with COLO 205 colon it was 50.7 µM; in the experiment with MDA-MB-435 it was 38.9 µM; in the experiment on OVCAR-8 ovarian it was above 100 µM. Also, the TGI in the experiment with NCI-H460 lung is above 100 µM.
With `CCCCCCCCCCCC(=O)OC[C@@H](C[As](=O)(O)O)OC(=O)CCCCCCCCCCC`, the TGI is 36.6 µM in the experiment on NCI/ADR-RES ovarian; 29.1 µM with SW-620 colon; 17.8 µM in the experiment on NCI-H23 lung; 24.1 µM in the experiment on HCT-15 colon; 8.47 µM in the experiment with M14 melanoma; above 55.1 µM in the experiment with K-562 leukemia. Also, the TGI with U251 CNS was 4.42 µM; in the experiment with OVCAR-4 ovarian it was 29.1 µM; in the experiment on SF-268 CNS it was above 32.2 µM; in the experiment on COLO 205 colon, 36.6 µM; with MDA-MB-435, 15 µM; in the experiment with OVCAR-8 ovarian, 23.6 µM. Besides, the TGI in the experiment on NCI-H460 lung was 11.1 µM.
On to `S=C1NCCN1C(=S)Nc1ccccc1`, for which the TGI with NCI/ADR-RES ovarian, with SW-620 colon, in the experiment on NCI-H23 lung, in the experiment with HCT-15 colon, in the experiment with M14 melanoma and in the experiment with K-562 leukemia was above 100 µM in each case. The TGI in the experiment on U251 CNS, in the experiment with OVCAR-4 ovarian, with SF-268 CNS, with COLO 205 colon, in the experiment with MDA-MB-435 and with OVCAR-8 ovarian was above 100 µM throughout. Further, the TGI in the experiment with NCI-H460 lung was above 100 µM.
